In patent publication US20260015350A1, “AZAQUINAZOLINE PAN-KRAS INHIBITORS” (Mirati Therapeutics, Inc., priority 2022, published 2026) one finds IC50 and inhibition data, which are given here for eight molecules.

The structures appear in SMILES notation.

The target in assay [1] is T1, KRas^G12D (Homo sapiens, UniProt P01116, G12D).
T1 construct: Biotinylated KRas (corresponding to amino acids 1-169, produced at Accelegan Inc.); biotin (biotinylated); purchased Accelegan Inc
The experiment in a line: KRas binding assay (TR-FRET tracer displacement), KRas G12D.

Assay [2] addresses T2, KRas^G12R (Homo sapiens, UniProt P01116, G12R).
T2 construct: Biotinylated KRas (corresponding to amino acids 1-169, produced at Accelegan Inc.); biotin (biotinylated); purchased Accelegan Inc
The experiment in a line: KRas binding assay (TR-FRET tracer displacement), KRas G12R. For orientation: TR-FRET usually uses a lanthanide donor and a delayed reading to cut background.

Assay [3] deals with T3, KRas^G12V (Homo sapiens, UniProt P01116, G12V).
T3 construct: Biotinylated KRas (corresponding to amino acids 1-169, produced at Accelegan Inc.); biotin (biotinylated); purchased Accelegan Inc
The experiment in a line: KRas binding assay (TR-FRET tracer displacement), KRas G12V.

For assay [4], the system named is KRas-mediated phosphorylation of ERK in AsPC-1 cells. The experiment in a line: Inhibition of KRas-mediated phosphorylation of ERK (Cisbio HTRF pERK), AsPC-1 cells. The class given is cell-based. The conditions noted are these: Homo sapiens; for IC50: ASPC1, AsPC-1 cells, HTRF pERK; for inhibition at 0.1 µM: ASPC1, 3 h, single point, 100 nM compound, 3 hrs, AsPC-1 cells. In a few lines:
(§1)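 Min control wells contained 0.2 uM Trametinib, while test compounds ran as 10 doses (3-fold, top 10 uM; 0.8% DMSO final) on cells for 3 hrs. After 40 mins lysis at 4° C, lysates were probed with HTRF antibodies for 2 hrs at room temperature.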

Assay [5] relates to KRas-mediated phosphorylation of ERK in H727 cells. The experiment in a line: Inhibition of KRas-mediated phosphorylation of ERK (Cisbio HTRF pERK), H727 cells. The class given is cell-based. The conditions noted are these: Homo sapiens; for IC50: NCI-H727, H727 cells, HTRF pERK; for inhibition at 0.1 µM: NCI-H727, 3 h, single point, 100 nM compound, 3 hrs, H727 cells. The method in brief: as §1

Assay [6] has as its system KRas-mediated phosphorylation of ERK in A549 cells. Kind of assay: Inhibition of KRas-mediated phosphorylation of ERK (Cisbio HTRF pERK), A549 cells. The class given is cell-based. The conditions noted are these: Homo sapiens; for inhibition at 0.1 µM: A549, 3 h, single point, 100 nM compound, 3 hrs; for IC50: HTRF pERK. In a few lines: (§2)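 HTRF readout of phospho-ERK in cell lysates after 3 hrs of compound exposure. Dosing: 10 uM top, 3-fold steps, 10 doses, final DMSO 0.8%. Min control: 0.2 uM Trametinib. Lysis ran 40 mins at 4° C, and antibody detection 2 hrs at room temperature.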

Assay [7] concerns KRas-mediated phosphorylation of ERK in H460 cells. The experiment in a line: Inhibition of KRas-mediated phosphorylation of ERK (Cisbio HTRF pERK), H460 cells. The class given is cell-based. The conditions noted are these: Homo sapiens; for inhibition at 0.1 µM: NCI-H460, 3 h, single point, 100 nM compound, 3 hrs; for IC50: NCI-H460, HTRF pERK. The method in brief:
as §1

In assay [8] the test system is KRas-mediated phosphorylation of ERK in HCT116 cells. The experiment in a line: Inhibition of KRas-mediated phosphorylation of ERK (Cisbio HTRF pERK), HCT116 cells. The class given is cell-based. Conditions: Homo sapiens; for inhibition at 0.1 µM: HCT-116, 3 h, single point, 100 nM compound, 3 hrs; for IC50: HCT-116, HTRF pERK. In a few lines: as §2
Assay [9] relates to KRas-mediated phosphorylation of ERK in H358 cells. The experiment in a line: Inhibition of KRas-mediated phosphorylation of ERK (Cisbio HTRF pERK), H358 cells. The class given is cell-based. The conditions noted are these: Homo sapiens; for inhibition at 0.1 µM: NCI-H358, 3 h, single point, 100 nM compound, 3 hrs; for IC50: NCI-H358, HTRF pERK. As to the method:
Inhibition of KRas Phosphorylation of ERK (HTRF) by Exemplary Compounds of Formula (I) Cisbio HTRF Advanced PERK Assay Catalog #64[…] […] Add 10 mL of media to stop trypsinizing. Pipette the cells into a conical bottom 50 mL centrifuge tube and centrifuge 5 min×1000 rpm. […] Re-suspend the cell pellet in media, take a cell count, and then adjust the cell density using fresh media. […] Seed 6,000 cells into cell culture plate with 50 μL media. […] Use Tecan to complete the compound addition. Compounds start from 10 uM top, 3-fold dilution, and 10 doses. The final DMSO concentration is 0.8%. Dispensed 0.2 uM Trametinib as Min control. […] Incubate cell plate for 3 hrs in the incubator. […] Dilute 1 volume of 4× lysis buffer with 3 volumes of deionized water. […] Keep lysis buffer on the ice. […] At the end of the compound treatment, flick-off the media. […] Add 35 μL of lysis buffer per well using a Multidrop Combi. Then place on a plate agitator shaking at 300 rpm at 4° C. for 40 mins. […] Make up the HTRF antibody buffer. For each assay plate, mix 50 μL of d2-conjugate antibody with 950 μL of detection buffer. Similarly, mix 50 μL of Cryptate antibody with 950 μL of detection buffer. Then mix the two diluted antibodies together. […] Dispense 3.4 μL the antibody buffer to wells of an empty assay plate. Seal the plate and centrifuge plate 30 sec×1000 rpm. […] At the end of the 4° C. lysis, centrifuge the lysate plates 3 mins×1500 rpm. […] Use the Bravo to transfer 13.6 μL of lysate from cell culture plate to assay plate. Then incubate assay plate for 2 hrs at room temperature. 8. At the end of incubation, read plate on the Envision after centrifuging plate 30 sec×1000 rpm.

T2 sequence (P01116 1-169 isoform P01116-2 G12R): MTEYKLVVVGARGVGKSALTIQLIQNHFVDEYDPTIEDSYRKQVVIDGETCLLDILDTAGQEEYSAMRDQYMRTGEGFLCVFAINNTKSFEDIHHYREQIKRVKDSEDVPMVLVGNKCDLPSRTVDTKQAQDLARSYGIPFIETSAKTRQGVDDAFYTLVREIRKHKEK
T3 sequence (P01116 1-169 isoform P01116-2 G12V): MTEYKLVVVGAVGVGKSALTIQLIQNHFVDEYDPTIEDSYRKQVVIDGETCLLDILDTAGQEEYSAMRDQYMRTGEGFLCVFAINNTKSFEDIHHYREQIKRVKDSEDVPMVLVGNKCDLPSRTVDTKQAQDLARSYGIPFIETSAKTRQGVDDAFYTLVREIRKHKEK
T1 sequence (P01116 1-169 isoform P01116-2 G12D): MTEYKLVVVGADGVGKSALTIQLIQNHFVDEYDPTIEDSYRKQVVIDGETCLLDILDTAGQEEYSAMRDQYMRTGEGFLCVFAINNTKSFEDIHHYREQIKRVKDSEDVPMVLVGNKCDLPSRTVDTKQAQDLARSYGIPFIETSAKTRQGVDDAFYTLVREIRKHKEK

As for `CCc1c(F)ccc2cc(O)cc(-c3ncc4c(N5CCCC6(C5)NC(=O)NC6=O)nc(N5CC(N(C)C)C5)nc4c3F)c12` (centres unmarked) [Example 534, 7-(2-(3-(dimethylamino)azetidin-1-yl)-7-(8-ethyl-7-fluoro-3-hydroxynaphthalen-1-yl)-8-fluoropyrido[4,3-d]pyrimidin-4-yl)-1,3,7-triazaspiro[4.5]decane-2,4-dione], the half-inhibitory concentration (IC50) (in general, the concentration that inhibits the measured activity by half) in assay [1] was found to be 7 nM; in assay [2], 2 nM; in [3], 5 nM; in [4], 5810 nM; in assay [5], 1620 nM. Further, the inhibition (usually the relative decrease from the control value, in per cent) at 0.1 µM in assay [6] was -19%; in [7], -6%; in [8], -6%; in assay [9], -9%.
In the case of `CCc1c(F)ccc2cc(O)cc(-c3ncc4c(N5CCCC(C6CCOC6)C5)nc(OC[C@@]56CCCN5C[C@H](F)C6)nc4c3F)c12` (stereo partly drawn) [Example 595, 5-ethyl-6-fluoro-4-(8-fluoro-2-(((2R,7aS)-2-fluorohexahydro-1H-pyrrolizin-7a-yl)methoxy)-4-(3-(tetrahydrofuran-3-yl)piperidin-1-yl)pyrido[4,3-d]pyrimidin-7-yl)naphthalen-2-ol], the IC50 in [1] worked out at 194 nM; in assay [2], 85 nM; in [3], 38 nM; in [4], 1570 nM; in [5], 1190 nM. Moreover, the inhibition at 0.1 µM in [6] was 3%; in assay [7], 12%; in [8], -9%; in assay [9], -1%.
Take `CCc1c(F)ccc2cc(O)cc(-c3ncc4c(N5CCCC(Cn6cccn6)C5)nc(OC[C@@]56CCCN5C[C@H](F)C6)nc4c3F)c12` (stereo partly drawn) [Example 610, 4-(4-(3-((1H-pyrazol-1-yl)methyl)piperidin-1-yl)-8-fluoro-2-(((2R,7aS)-2-fluorotetrahydro-1H-pyrrolizin-7a(5H)-yl)methoxy)pyrido[4,3-d]pyrimidin-7-yl)-5-ethyl-6-fluoronaphthalen-2-ol]: the IC50 turned out to be 66 nM in [1]; 48 nM in assay [2]; 28 nM in assay [3]; 884 nM in assay [4]; 660 nM in [5]; 1300 nM in [6]. Also, the IC50 in [7] turned out to be 256 nM; in assay [8], 1010 nM; in [9], 662 nM. Besides, the inhibition at 0.1 µM was 10% in assay [6], 31% in [7], -5% in [8] and 1% in assay [9].
In the case of `CCc1c(F)ccc2cc(O)cc(-c3ncc4c(N5CCC[C@@](C)(O)C5)nc(N5CC(N(C)C)C5)nc4c3F)c12` [Example 533, (R)-1-(2-(3-(dimethylamino)azetidin-1-yl)-7-(8-ethyl-7-fluoro-3-hydroxynaphthalen-1-yl)-8-fluoropyrido[4,3-d]pyrimidin-4-yl)-3-methylpiperidin-3-ol], the IC50 in assay [1] came to 72 nM; in [2], 119 nM; in [3], 105 nM; in assay [4] it was 1500 nM; in assay [5] it was 1970 nM. Moreover, the inhibition at 0.1 µM was 27% in [6], 8% in [7], 8% in assay [8] and -7% in [9].
In the case of `CCc1c(F)ccc2cc(O)cc(-c3ncc4c(N5CCC[C@@](C)(O)C5)nc(OCC5(CN(C)C)CC5(C)C)nc4c3F)c12` (stereo partly drawn) [Example 704, (3R)-1-(2-((1-((dimethylamino)methyl)-2,2-dimethylcyclopropyl)methoxy)-7-(8-ethyl-7-fluoro-3-hydroxynaphthalen-1-yl)-8-fluoropyrido[4,3-d]pyrimidin-4-yl)-3-methylpiperidin-3-ol], the IC50 in assay [1] stood at 5 nM; in assay [2], 11 nM; in [3] it was 5 nM; in assay [4], 53 nM; in assay [5], 223 nM. The inhibition at 0.1 µM in assay [4] came to 25%; in assay [5], 21%; in assay [6] it was 26%; in assay [7], 40%; in [8] it was 19%; in [9], 47%.
On to `CCc1c(F)ccc2cc(O)cc(-c3ncc4c(N5CCCC6(CC6C#N)C5)nc(OC[C@@]56CCCN5C[C@H](F)C6)nc4c3F)c12` (stereo partly drawn) [Example 851, 5-(7-(8-ethyl-7-fluoro-3-hydroxynaphthalen-1-yl)-8-fluoro-2-(((2R,7aS)-2-fluorotetrahydro-1H-pyrrolizin-7a(5H)-yl)methoxy)pyrido[4,3-d]pyrimidin-4-yl)-5-azaspiro[2.5]octane-1-carbonitrile], for which the concentration for half-maximal inhibition (IC50) in [1] turned out to be 36 nM; in assay [2], 9 nM; in [3], 12 nM; in assay [4], 1210 nM; in [5], 932 nM; in assay [6] it was 397 nM. The IC50 in assay [7] worked out at 159 nM; in [8] it was 475 nM; in assay [9], 264 nM.
Regarding `CCc1c(F)ccc2cc(O)cc(-c3ncc4c(N5CCC[C@@](C)(O)C5)nc(OC[C@]56CCCN5[C@@H](CNS(=O)(=O)N(C)C)CC6)nc4c3F)c12` [Example 787, (R)-1-(7-(8-ethyl-7-fluoro-3-hydroxynaphthalen-1-yl)-8-fluoro-2-(((3R,7aR)-3-(((dimethylsulfamoyl)amino)methyl)tetrahydro-1H-pyrrolizin-7a(5H)-yl)methoxy)pyrido[4,3-d]pyrimidin-4-yl)-3-methylpiperidin-3-ol], the IC50 in assay [1] stood at 4 nM; in assay [2], 6 nM; in assay [3] it was 3 nM; in assay [4], 1670 nM; in assay [5] it was 2080 nM. In addition, the inhibition at 0.1 µM came out at 23% in assay [4]; 33% in assay [5]; 14% in assay [6]; 11% in assay [7]; 9% in assay [8]; 8% in assay [9].
Take `CCc1c(F)ccc2cc(O)cc(-c3ncc4c(N5CC6CCC(CC(N)=O)(C6)C5)nc(OC[C@@]56CCCN5C[C@H](F)C6)nc4c3F)c12` (stereo partly drawn) [Example 908, 2-(3-(7-(8-ethyl-7-fluoro-3-hydroxynaphthalen-1-yl)-8-fluoro-2-(((2R,7aS)-2-fluorotetrahydro-1H-pyrrolizin-7a(5H)-yl)methoxy)pyrido[4,3-d]pyrimidin-4-yl)-3-azabicyclo[3.2.1]octan-1-yl)acetamide]: the IC50 in [1] was determined as 14 nM; in assay [2] it was 8 nM; in assay [3], 6 nM; in assay [4], 5800 nM; in assay [5], 2310 nM; in assay [6] it was 1630 nM. Besides, the 50% inhibitory concentration (IC50) in assay [7] is 630 nM; in assay [8] it was 1730 nM; in assay [9], 707 nM.
